Data taken from patent publication US8318943B1, “Sorbitol/dexlansoprazole co-crystals and method for making same” (Takeda Pharmaceuticals U.S.A., Inc., priority 2010, dated 2012).
In brackets after ≈: the same amount, converted by molar mass. Where two headings read alike, the source gives them in different places. Marks after values point to notes of the source that are not given here.

What was measured:
physchem = conditions: thermodynamic from solid
[1] = Approximate solubility tests in selected solvents; type: physicochemical; conditions: organic solvent or mixture, read-out: Solubility [S, mg/ml]
Excerpt: A sample of dexlansoprazole sesquihydrate was characterized by FT-Raman spectroscopy, XRPD, ^1H-NMR and approximate solubility tests.
Accordingly, ethanol, ethyl acetate, acetonitrile, and THF were chosen as solvents for the co-crystal screening.

[2] = cited from earlier work
[3] = Dynamic vapor sorption (DVS), hygroscopicity; type: physicochemical; conditions: for FT-Raman post-DVS compared with pre-DVS/reference (form change): after DVS cycle; for DVS weight gain at 85% relative humidity: 85% r.h.
Description: DVS was carried out in a Surface Measurement System DVS-1. The sample was placed on a platinum holder on top of a microbalance and allowed to equilibrate for 2 hours at 50% r.h. before starting the pre-defined humidity program: 50→95% r.h. (5%/h); 5 hours at 95% r.h., 95→0% r.h. (5%/h); 5 h at 0% r.h., then 0→50% r.h. (5%/h); and 2 hours at 50% r.h.
The hygroscopicity was classified based on the mass gain at 85% r.h. relative to the initial mass as follows: deliquescent (sufficient water adsorbed to form a liquid), very hygroscopic (mass increase of ≧15%), hygroscopic (mass increase <15% but ≧2%), slightly hygroscopic (mass increase <2% but ≧0.2%), or non-hygroscopic (mass increase <0.2%).
In order to examine the behavior of SP134-SBT-P26 in the presence of variable water vapor pressure, the sample was analyzed by isothermal DVS at 25° C. […] The sample was conditioned at 50% r.h. before starting a pre-defined humidity program with a scanning rate of 5% r.h. change per hour. Below 50% r.h. a small but continuous mass loss of the sample is observed (˜0.07%). This mass loss is in good accordance to the results of the TG-FTIR-measurement and Karl Fischer water content determination.
In order to examine the behavior of SP134-SBT-P27 in the presence of variable water vapor pressure, the sample was analyzed by isothermal DVS at 25° C. The sample was conditioned at 50% r.h. before starting a pre-defined humidity program with a scanning rate of 5% r.h. change per hour. Below 50% r.h. a small but continuous mass loss of the sample is observed (˜0.06%). This mass loss is in good accordance to the results of the TG-FTIR-measurement and Karl Fischer water content determination.

[4] = Approximate solubility by manual dilution combined with visual observation; conditions: for solubility / Solubility (mg/mL): room temperature
[5] = Aqueous solubility, 24 h equilibration, HPLC of filtrate; type: physicochemical
Description: (§1) HPLC was carried out in a TSP instrument with a P4000 pump, an AS3000 autosampler, an SCM1000 degasser, a UV3000 detector, and PC1000 Version 4.1 software.
The pH of the corresponding saturated solution was 6.1. […] This may be due to chemical instability of dexlansoprazole in the solution environment.

[6] = Kinetic solubility experiment in water; type: physicochemical
Description: as §1
A further experiment to evaluate the kinetic solubility was carried out. The maximum was reached already after 15 minutes and that the concentration in the solution remained constant for the duration of the experiment.

[7] = Stability of the co-crystal as a solid and in water or solution; conditions: for Stability in water for 24 hours: 25° C., disintegration into its components
Description: Solubility was determined by adding approximately 0.5 mL of doubly distilled water to 19.1 mg of the substance to be measured. The resulting suspension was equilibrated in a temperature-controlled Eppendorf Thermomixer Comfort Shaker for 24 hours at 25° C. at a shaking rate of 500 rpm. The solid phase was recovered by filter centrifugation (0.1-μm PVDF membrane) and examined by FT-Raman spectroscopy. Concentrations in the filtrate (i.e., saturated solutions) or diluted solutions thereof were determined using the HPLC method disclosed herein. The pH of the saturated solution was determined with a Metrohm 713 pH meter.

[8] = 1:1 EtOAc/DMSO (v/v), organic solvent or mixture
[9] = 1:1 EtOH/H2O (v/v), aqueous with cosolvent or surfactant or cyclodextrin
[10] = 2:1 EtOH/H2O + 5 vol.-% NH3 solution, aqueous with cosolvent or surfactant or cyclodextrin
[11] = 2:1 MeOH/H2O + 5 vol.-% NH3 solution, aqueous with cosolvent or surfactant or cyclodextrin
[12] = 2:1 MeOH/borax buffer, pH 9, aqueous with cosolvent or surfactant or cyclodextrin
[13] = 9:1 EtOAc/DMSO (v/v), organic solvent or mixture
[14] = DMSO, organic solvent or mixture
[15] = EtOAc, organic solvent or mixture
[16] = MeOH, organic solvent or mixture
[17] = isothermal DVS at 25° C., listed as SP134-SBT-P27

OC[C@@H](O)[C@@H](O)[C@H](O)[C@@H](O)CO [Sorbitol, D-sorbitol]
solubility (physchem; 1:1 DMSO/EtOH (v/v), 60 °C, organic solvent or mixture): > 102 mg/mL
solubility (physchem; [8]): 125 to 250 mg/mL (≈ 686 to 1370 mM)
solubility (physchem; 1:1 EtOAc/EtOH (v/v), 60 °C, organic solvent or mixture): 3 mg/mL (≈ 16.5 mM)
solubility (physchem; [9]): ~160 mg/mL (≈ 878 mM)
solubility (physchem; 1:2 EtOAc/EtOH (v/v), 60 °C, organic solvent or mixture): 6 mg/mL (≈ 32.9 mM)
solubility (physchem; 1:3 DMSO/EtOH (v/v), 60 °C, organic solvent or mixture): 54 to 108 mg/mL (≈ 296 to 593 mM)
solubility (physchem; 1:3 EtOAc/EtOH (v/v), 60 °C, organic solvent or mixture): 10 mg/mL (≈ 54.9 mM)
solubility (physchem; 1:5 DMSO/EtOH (v/v), 60 °C, organic solvent or mixture): 39 to 59 mg/mL (≈ 214 to 324 mM)
solubility (physchem; 1:5 EtOAc/EtOH (v/v), 60 °C, organic solvent or mixture): 11 mg/mL (≈ 60.4 mM)
solubility (physchem; [10]): 125 to 250 mg/mL
solubility (physchem; [11]): > 250 mg/mL
solubility (physchem; [12]): > 250 mg/mL
solubility (physchem; [13]): ~1 mg/mL (≈ 5.49 mM)
solubility (physchem; [14]): > 200 mg/mL
solubility (physchem; [15]): < 1 mg/mL
solubility (physchem; [16]): ~13 mg/mL (≈ 71.4 mM)
solubility (physchem; water): > 200 mg/mL

Cc1c(OCC(F)(F)F)ccnc1C[S@@+]([O-])c1nc2ccccc2[nH]1 [SP134-FD-P1, dexlansoprazole sesquihydrate, reference compound]
solubility ([1]; MEK): ~226 mg/mL
solubility ([1]; THF): ~228 mg/mL
solubility ([1]; acetone): ~230 mg/mL
solubility ([1]; acetonitrile): ~210 mg/mL
solubility ([1]; ethanol): ~228 mg/mL
solubility ([1]; ethyl acetate): ~204 mg/mL
solubility ([1]; methanol): ~204 mg/mL
solubility (physchem; [8]): > 200 mg/mL
solubility (physchem; [9]): ~30 mg/mL
solubility (physchem; [10]): 100 to 200 mg/mL
solubility (physchem; [11]): 100 to 200 mg/mL
solubility (physchem; [12]): 90 to 190 mg/mL
solubility (physchem; [13]): > 200 mg/mL
solubility (physchem; [14]): > 200 mg/mL
solubility (physchem; [15]): > 20 mg/mL
solubility (physchem; [16]): > 200 mg/mL
solubility (physchem; ethanol, organic solvent or mixture): > 200 mg/mL
solubility (physchem; water): < 1 mg/mL

Cc1c(OCC(F)(F)F)ccnc1C[S@@+]([O-])c1nc2ccccc2[nH]1 [Dexlansoprazole]
Descriptive solubility ([2]; acetonitrile): soluble
Descriptive solubility ([2]; dichloromethane): freely soluble
Descriptive solubility ([2]; dimethyl formamide): freely soluble
Descriptive solubility ([2]; ethanol): freely soluble
Descriptive solubility ([2]; ether): slightly soluble
Descriptive solubility ([2]; ethyl acetate): freely soluble
Descriptive solubility ([2]; hexane): substantially insoluble
Stability when exposed to light ([2]; light): stable
Descriptive solubility ([2]; methanol): freely soluble
Stability depending on pH conditions ([2]; neutral and alkaline vs acidic conditions): more stable in neutral and alkaline conditions than acidic conditions
Descriptive solubility ([2]; water): very slightly soluble

Cc1c(OCC(F)(F)F)ccnc1C[S@@+]([O-])c1nc2ccccc2[nH]1.OC[C@@H](O)[C@@H](O)[C@H](O)[C@@H](O)CO [SP134-SBT-P26]
FT-Raman post-DVS compared with pre-DVS/reference (form change) [3]: no phase transition
DVS water uptake at about 85% r.h. relative to the mass at 0% r.h. ([3]; isothermal DVS at 25° C.): 0.12%
DVS water uptake at about 85% r.h. relative to the mass at 0% r.h. [3, 17]: 0.08%
DVS mass loss below 50% r.h. ([3]; isothermal DVS at 25° C.): ~0.07%
DVS mass loss below 50% r.h. [3, 17]: ~0.06%
Hygroscopicity class ([3]; isothermal DVS at 25° C., water uptake at about 85% r.h. relative to the mass at 0% r.h.): not hygroscopic
Approximate solubility ([4]; 1:3 DMSO/EtOH, 10° C.): 14 to 16 mg/mL
Approximate solubility ([4]; 1:3 DMSO/EtOH, 40° C.): 50 to 63 mg/mL
Approximate solubility ([4]; 1:4 DMSO/EtOH, 10° C.): 11.5 to 12.5 mg/mL
Approximate solubility ([4]; 1:4 DMSO/EtOH, 40° C.): >37 mg/mL
Approximate solubility ([4]; 1:5 DMSO/EtOH, 10° C.): 9.3 to 9.8 mg/mL
Approximate solubility ([4]; 1:5 DMSO/EtOH, 40° C.): 17 to 23 mg/mL
Solubility relative to sorbitol and dexlansoprazole ([4]; DMSO/EtOH, 40° C.): less soluble than sorbitol and dexlansoprazole

Cc1c(OCC(F)(F)F)ccnc1C[S+]([O-])c1nc2ccccc2[nH]1.Cc1c(OCC(F)(F)F)ccnc1C[S+]([O-])c1nc2ccccc2[nH]1.OCC(O)C(O)C(O)C(O)CO.OCC(O)C(O)C(O)C(O)CO.OCC(O)C(O)C(O)C(O)CO (stereo not shown) [SP134-SBT-P7]
Solubility in water ([5]; 24 hours equilibration at 22° C., solid residue was free drug, so value corresponds to free drug): 0.18 mg/mL
pH of the saturated solution ([5]; water, 24 hours equilibration): 6.1
Solubility as a function of time, constant value reached ([6]; after 15 minutes): 0.25 mg/mL
Kinetic solubility in water ([6]; 15 min): 0.25 mg dexlansoprazole per ml
Kinetic solubility in water ([6]; 30 min): 0.26 mg dexlansoprazole per ml
Kinetic solubility in water ([6]; 1 hour): 0.26 mg dexlansoprazole per ml
Kinetic solubility in water ([6]; 2 hour): 0.24 mg dexlansoprazole per ml
Kinetic solubility in water ([6]; 4 hrs.): 0.27 mg dexlansoprazole per ml
Kinetic solubility in water ([6]; 8 hrs.): 0.27 mg dexlansoprazole per ml
Reversibility of DVS weight gain and loss [3]: reversible
DVS weight loss at 0% r.h. relative to the starting weight ([3]; 0% r.h.): < 1 wt.-%
DVS weight increase at 50% r.h. on desorption relative to the starting weight ([3]; 50% r.h. after lowering from 95% r.h.): ~1 wt. %
DVS step in weight gain ([3]; 70-75% r.h.): ~4 wt.-%
DVS weight gain at 85% relative humidity [3]: (~70-75% r.h.), gain of ~7 wt.-% at 85% r.h.;
DVS weight gain at 85% relative humidity ([3]; listed as sorbitol co-crystal): ~7 wt.-%
FT-Raman post-DVS compared with pre-DVS/reference (form change) [3]: no significant changes
Hygroscopicity class ([3]; mass gain at 85% r.h. relative to the initial mass, listed as sorbitol co-crystal): hygroscopic (mass increase <15% but ≧2%)
DVS weight gain at 95% relative humidity ([3]; r.h. raised from 50% to 95%): 20 wt.-%
Stability as a solid ([7]; solid): stable
Stability in water for 24 hours [7]: solid form not stable in H2O for 24 h, disintegrates
Stability in water for 24 hours ([7]; listed as dexlansoprazole/sorbitol co-crystal): not stable
solubility ([4]; 1:1 EtOAc/DMSO): >200 mg/mL
Solubility (mg/mL) ([4]; 1:1 EtOH/H2O): 50-100^a mg/mL
solubility ([4]; 2:1 EtOH/H2O + 5 vol.-% NH3 solution): 60 to 100 mg/mL
solubility ([4]; 2:1 MeOH/H2O + 5 vol.-% NH3 solution): 60 to 100 mg/mL
Solubility (mg/mL) ([4]; 2:1 MeOH/borax buffer (pH = 9.0)): 45-65^a mg/mL
solubility ([4]; 9:1 EtOAc/DMSO): ~10 mg/mL
solubility ([4]; EtOAc): <1 mg/mL
Solubility (mg/mL) ([4]; H2O): 0.25^a mg/mL
